In ChEMBL document CHEMBL1145007 (J Med Chem, 2003):

How the values were obtained:
Acetylcholinesterase [1] = molecular target: T1, Acetylcholinesterase (Bos taurus, UniProt P23795)
T1 sequence (P23795 whole entry): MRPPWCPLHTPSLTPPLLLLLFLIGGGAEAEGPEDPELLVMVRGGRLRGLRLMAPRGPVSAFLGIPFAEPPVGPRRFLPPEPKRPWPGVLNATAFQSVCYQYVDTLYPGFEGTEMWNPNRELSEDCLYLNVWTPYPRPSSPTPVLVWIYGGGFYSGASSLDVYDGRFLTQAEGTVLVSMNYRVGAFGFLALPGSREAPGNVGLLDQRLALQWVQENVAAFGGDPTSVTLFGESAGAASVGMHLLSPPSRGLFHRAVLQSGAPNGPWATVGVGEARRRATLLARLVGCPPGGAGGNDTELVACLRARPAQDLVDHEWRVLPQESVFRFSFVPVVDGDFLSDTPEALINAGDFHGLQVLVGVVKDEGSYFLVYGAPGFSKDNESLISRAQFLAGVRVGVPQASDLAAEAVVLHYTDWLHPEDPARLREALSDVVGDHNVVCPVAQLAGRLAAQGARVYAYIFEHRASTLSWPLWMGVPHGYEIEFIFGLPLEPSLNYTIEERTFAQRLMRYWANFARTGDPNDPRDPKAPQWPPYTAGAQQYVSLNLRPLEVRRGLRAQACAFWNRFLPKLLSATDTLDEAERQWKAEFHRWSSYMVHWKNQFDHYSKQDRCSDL
Description: Inhibition of fetal Bovine serum AChE

Butyrylcholinesterase = Butyrylcholinesterase (Equus caballus, UniProt Q9N1N9)
Sequence of Butyrylcholinesterase (Q9N1N9 whole entry): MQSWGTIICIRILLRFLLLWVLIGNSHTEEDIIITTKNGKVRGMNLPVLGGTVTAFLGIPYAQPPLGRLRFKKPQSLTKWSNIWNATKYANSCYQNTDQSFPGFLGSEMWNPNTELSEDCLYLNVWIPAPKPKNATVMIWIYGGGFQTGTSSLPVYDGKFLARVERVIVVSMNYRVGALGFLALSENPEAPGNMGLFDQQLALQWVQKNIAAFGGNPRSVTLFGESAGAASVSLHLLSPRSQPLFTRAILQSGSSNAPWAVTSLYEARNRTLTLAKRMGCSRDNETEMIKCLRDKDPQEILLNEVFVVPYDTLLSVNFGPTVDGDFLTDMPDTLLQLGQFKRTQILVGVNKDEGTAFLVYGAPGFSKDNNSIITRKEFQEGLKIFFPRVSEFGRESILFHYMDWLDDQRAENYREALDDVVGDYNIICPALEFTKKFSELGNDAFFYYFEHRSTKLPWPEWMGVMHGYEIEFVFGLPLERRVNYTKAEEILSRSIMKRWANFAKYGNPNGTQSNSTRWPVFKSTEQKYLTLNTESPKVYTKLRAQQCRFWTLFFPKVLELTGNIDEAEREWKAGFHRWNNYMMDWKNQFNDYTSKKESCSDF
Description: Inhibition of Equine Butyrylcholinesterase

Acetylcholinesterase [2] = molecular target: Acetylcholinesterase (Homo sapiens, UniProt P22303); assay: Inhibitory activity against human AChE
Sequence of Acetylcholinesterase (Homo sapiens, UniProt P22303) (P22303 whole entry): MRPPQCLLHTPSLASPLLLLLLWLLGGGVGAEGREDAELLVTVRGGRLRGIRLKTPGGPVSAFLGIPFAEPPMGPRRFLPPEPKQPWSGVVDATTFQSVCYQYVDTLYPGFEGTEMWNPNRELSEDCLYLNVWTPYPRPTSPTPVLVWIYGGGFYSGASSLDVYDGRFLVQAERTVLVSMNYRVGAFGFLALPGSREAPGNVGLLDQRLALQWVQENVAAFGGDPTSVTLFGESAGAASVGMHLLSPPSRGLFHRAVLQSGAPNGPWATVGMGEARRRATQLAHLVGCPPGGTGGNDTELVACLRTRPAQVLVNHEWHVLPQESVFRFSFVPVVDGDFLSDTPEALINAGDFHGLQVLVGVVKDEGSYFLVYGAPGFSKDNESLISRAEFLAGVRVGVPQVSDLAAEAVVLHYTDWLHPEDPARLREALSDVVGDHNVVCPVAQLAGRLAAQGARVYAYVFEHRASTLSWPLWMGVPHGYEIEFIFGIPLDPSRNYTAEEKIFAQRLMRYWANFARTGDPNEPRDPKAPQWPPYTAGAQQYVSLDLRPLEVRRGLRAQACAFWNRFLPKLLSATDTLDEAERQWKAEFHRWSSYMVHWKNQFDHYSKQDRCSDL

SMILES	Ki (Acetylcholinesterase [1])	Ki (Butyrylcholinesterase)	Ki (Acetylcholinesterase [2])
c1ccc2c(NCCCCCCCCSc3c4c(nc5ccccc35)CCCC4)c3c(nc2c1)CCCC3	250 nM	0.4 nM	
c1ccc2c(NCCCCCSc3c4c(nc5ccccc35)CCCC4)c3c(nc2c1)CCCC3	210 nM	10 nM	
CN(CCCNc1c2c(nc3ccccc13)CCCC2)CCCNc1c2c(nc3cc(Cl)cc(Cl)c13)CCCC2	3.7 nM	11 nM	
CC(=O)N(CCCNc1c2c(nc3ccccc13)CCCC2)CCCNc1c2c(nc3ccccc13)CCCC2	1500 nM	2 nM	
CN(CCCNc1c2c(nc3ccccc13)CCCC2)CCCNc1c2c(nc3ccccc13)CCCC2	0.06 nM	6 nM	
CCC1=CC2Cc3nc4cc(Cl)ccc4c(N)c3[C@@H](C1)C2 [HUPRINE X]			0.026 nM
